Reference: patent publication US8361507B2, “Eprosartan mesylate crystalline particles and a process for preparing pure eprosartan” (Hetero Drugs Limited, priority 2007, dated 2013)
Structures can show the parent of a compound that is named as a salt.

How the values were obtained:
[1] = Specific surface area by Brunauer-Emmett-Teller (B.E.T.) nitrogen absorption; type: physicochemical; settings: B.E.T. method, crystalline particles
Description: Specific surface area is defined in units of square meters per gram (m^2/g). It is usually measured by nitrogen absorption analysis. In this analysis, nitrogen is absorbed on the surface of the substance. The amount of the absorbed nitrogen (as measured during the absorption or the subsequent desorption process) is related to the surface area via a formula known as the B.E.T. formula.

[2] = Particle size distribution by laser diffraction (Sympatec Helos); type: physicochemical; settings: crystalline particles
Description: As used herein “Particle Size Distribution (P.S.D.)” means the cumulative volume size distribution of equivalent spherical diameters as determined by laser diffraction at 1 bar dispersive pressure in a Sympatec Helos equipment. “Mean particle size distribution, i.e., d(0.5)” correspondingly, means the median of said particle size distribution.

[3] = crystalline particles disclosed in WO 00/53282; cited from earlier work
[4] = cited from earlier work

Compound	Specific Surface Area [1]	90 volume-% of the particles (D90) [2] [μm]	Mean particle size (D50) [2] [μm]	d90 value [3]	solubility in methanol ([4]; methanol)	solubility in water ([4]; water)
CCCCc1ncc(/C=C(\Cc2cccs2)C(=O)O)n1Cc1ccc(C(=O)O)cc1 [Example 2, eprosartan mesylate]	1.09 m^2/g	33.48	12.13			
CCCCc1ncc(/C=C(\Cc2cccs2)C(=O)O)n1Cc1ccc(C(=O)O)cc1 [Reference Example 3, eprosartan mesylate]	0.53 m^2/g	213.72	70.56			
CCCCc1ncc(/C=C(\Cc2cccs2)C(=O)O)n1Cc1ccc(C(=O)O)cc1 [eprosartan mesylate, (αE)-α-[[2-n-Butyl-1-[(4-carboxyphenyl)methyl]-1H-imidazol-5-yl]methylene-2-thiophenepropanoic acid monomethanesulfonate]	below 0.6 m^2/g			less than 10 micron	soluble	practically insoluble
CCCCc1ncc(/C=C(\Cc2cccs2)C(=O)O)n1Cc1ccc(C(=O)O)cc1 [Example 4, eprosartan mesylate]	1.11 m^2/g	30.42	11.23			
